According to PMC4339887, “Selective Sirt2 inhibition by ligand-induced rearrangement of the active site” (Nature Communications, 2015):
“Also recorded” adds a separate entry of the source.

How the values were obtained:
HeLa cells = experiment: cell cycle analysis, propidium iodide flow cytometry; format: cell-based; conditions: treated as for BubR1
Experimental: reader (BMG Polarstar, Oex 390 nm, Oem 460 nm). The amount of inhibition was determined with respect to the mixture with only DMSO.
Immunocytochemistry equipment and settings. The signal of Alexa 546 and DAPI of the same region were acquired with constant illumination parameters as grayscale 8-bit 600 dpi tiff files (1600u 1200 pixels). Alexa 546 was acquired after 639.1 ms with a gamma factor of 0.65 without multiplying. The gain was set to 1. DAPI-stained images were acquired after about 20 ms with the same parameters as the one for Alexa 546 image acquisition. The temperature in the microscope room was kept at RT. Representative regions of each samples were processed with Adobe Photoshop CS2 to generate images in RGB mode by copying the appropriate original greyscale images to the blue (nuclei, DAPI) and the red (acetylated D-tubulin signal, Alexa 546) channel, respectively. As adjustment, a minimal background subtraction was applied on all images during processing in the same manner. The resolution was changed from 600 dpi (source images) to 450 dpi without resampling (Fig. 7 of the main article). LUT (CLUT) of grayscale images of the acetylated D-tubulin signal and of the DAPI signal are shown in Supplementary Fig. 8.
Cell Cycle Analysis. […] Stained cells were subjected to flow cytometric analysis using a FACSCaliber (BD Biosciences) and analyzed by FlowJo software (Tree Star, Inc.).

human Sirt4 = target: T1, human Sirt4 (Homo sapiens, UniProt Q9Y6E7); experiment: Sirt4-dependent deacetylation of acetylated Nnt397-peptide, LC-MS; format: biochemical; conditions: 200 μM, acetyl-lysine substrate
T1 construct: Human Sirt4_25–314 (Uniprot: Q9Y6E7); made in house
T1 sequence (Q9Y6E7 25-314): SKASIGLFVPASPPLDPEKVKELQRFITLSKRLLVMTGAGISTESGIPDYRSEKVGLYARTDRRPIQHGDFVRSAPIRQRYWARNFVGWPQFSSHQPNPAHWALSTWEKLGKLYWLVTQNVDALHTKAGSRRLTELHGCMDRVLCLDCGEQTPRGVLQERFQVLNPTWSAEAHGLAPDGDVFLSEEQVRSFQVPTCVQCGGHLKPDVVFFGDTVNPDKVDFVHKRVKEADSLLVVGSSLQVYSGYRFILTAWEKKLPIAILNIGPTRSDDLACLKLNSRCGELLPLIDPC
Experimental: Initial screens were conducted with a high-throughput fluorescence-based assay using the substrate ZMAL (Z-Lys(Acetyl)-AMC) that was synthesized according to published procedures. For this human Sirt1_133–747, human Sirt2_25–389, human Sirt3_101–399 or Sirt3_118–395 were mixed with assay buffer (50 mM Tris/HCl, 137 mM NaCl, 2.7 mM KCl, 1 mM MgCl2, pH 8.0), β-NAD^+ (final assay concentration 500 μM), the substrate ZMAL (final assay concentration 10.5 μM from a 12.6 mM stock solution in DMSO) and the respective inhibitor in DMSO at various concentrations or DMSO as a control (final DMSO concentration 5–20% (v/v)). The mixture was incubated at 37 °C for 4 h, with agitation at 150 r.p.m. […] Then the fluorescence intensity was measured in a microplate reader (BMG Polarstar, λex 390 nm, λem 460 nm). The amount of inhibition was determined with respect to the mixture with only DMSO. IC50 values were determined with Graphpad Prism software using a non-linear regression to fit the dose–response curve. […] Peaks of acetylated and deacetylated substrate were quantified by absorption at 280 nm. […] The samples were then diluted to a peptide concentration of 5 μM with 0.1% (v/v) formic acid and analysed on an EASY-nLCII connected to a LTQ mass spectrometer (Thermo Fisher Scientific). […]

BubR1 in HeLa cells = experiment: abundance of BubR1, western blot; format: cell-based
Experimental: Cells were washed with PBS, lysed in IPLS (50 mM Tris/HCl, 150 mM NaCl, 0.5 mM EDTA, 0.5% (v/v) NP-40, pH 7.5, supplemented with Complete protease inhibitors (Roche)). Samples were pelleted and resuspended in 1 × SDS–PAGE sample buffer and heated (95 °C, 5 min). Cell samples were separated using SDS–PAGE (10% (w/v) polyacrylamide), transferred to a nitrocellulose membrane (Bio-Rad), blocked with non-fat dry milk (Roth, 5% (w/v), TBS, 0.1% (v/v) Tween 20) and probed with the anti-BubR1 (1:5,000, BD Biosciences, 612502) and anti-tubulin (1:5,000, Sigma-Aldrich, T5168) as a loading control. Uncropped blots are shown in the Supplementary Fig. 8.

## Cc1cc(C)nc(SCC(=O)Nc2ncc(Cc3cccc4ccccc34)s2)n1 [SirReal2]
HeLa cells
  cell cycle distribution: did not alter
Human Sirt4
  effect on activity of Sirt4: very little effect
BubR1 in HeLa cells; 50 μM, in relation to DMSO control
  abundance of BubR1: significantly reduced
BubR1 in HeLa cells; various concentrations, 16 h
  abundance of BubR1: reduction; also recorded: dose-dependent depletion
